# Molecular target: T1, GSK3A (GSK3 alpha) (Homo sapiens, UniProt P49840)
# T1 construct: purchased Thermo Fisher Scientific (Life Technologies) SelectScreen
# Assay: SelectScreen Z'LYTE
# Assay type: biochemical
# How it was run: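 NU5455 was profiled across the SelectScreen Broad panel of kinase activity and binding assays. Z'LYTE reactions such as CSF1R ran at apparent Km ATP, while the Adapta CAMK1 assay used ATP listed as 10. Values are given as percent.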
# T1 sequence (P49840 whole entry): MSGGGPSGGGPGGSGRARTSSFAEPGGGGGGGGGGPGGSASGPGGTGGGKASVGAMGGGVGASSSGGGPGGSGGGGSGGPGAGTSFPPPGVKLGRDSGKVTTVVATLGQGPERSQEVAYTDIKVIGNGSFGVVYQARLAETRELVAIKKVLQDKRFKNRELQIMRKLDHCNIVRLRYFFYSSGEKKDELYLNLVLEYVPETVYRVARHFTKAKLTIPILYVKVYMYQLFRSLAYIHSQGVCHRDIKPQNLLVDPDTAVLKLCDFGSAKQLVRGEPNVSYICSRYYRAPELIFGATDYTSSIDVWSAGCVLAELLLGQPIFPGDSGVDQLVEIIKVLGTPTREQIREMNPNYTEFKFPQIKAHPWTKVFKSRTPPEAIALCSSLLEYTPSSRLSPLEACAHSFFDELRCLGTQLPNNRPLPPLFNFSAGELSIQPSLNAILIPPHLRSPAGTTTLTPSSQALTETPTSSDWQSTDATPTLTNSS
smiles,measurement,value
CN(C(=O)CN1CCOCC1)c1ccc2sc3c(-c4cccc5c(=O)cc(N6CC7CCC(C6)O7)oc45)cccc3c2c1 [NU5455],inhibition at 1 µM,-5.5%

# — publication PMC6934184, “Selective DNA-PKcs inhibition extends the therapeutic index of localized radiotherapy and chemotherapy” (The Journal of Clinical Investigation, 2019)
